Drawing on patent US7300930B2, “Therapeutic acridone and acridine compounds” (Cancer Research Technology Limited, priority 2000, dated 2007), this text covers IC50 for eleven compounds.

One data set deals with telomerase (Homo sapiens, UniProt O14746). The data set is described as follows: Modified telomeric repeat amplification protocol (TRAP) assay, cell-free. The class given is biochemical. The note with it: extracts from A2780 cells, tested as salts, read-out: telIC50 (Telomerase Inhibitory Activity). On the procedure: The ability of compounds to inhibit telomerase in a cell-free assay was assessed with a modified TRAP assay using extracts from exponentially growing A2780 human ovarian carcinoma cells. The TRAP assay was performed in 2 steps: (a) telomerase-mediated extension of the forward primer (TS: 5′-AATCCGTCGAGCAGAGTT (SEQ ID NO:3), Oswel Ltd., Southampton, UK) contained in a 40 µL reaction mix comprising TRAP buffer (20 mM Tris-HCl (pH 8.3), 68 mM KCl, 1.5 mM MgCl2, 1 mM EGTA, 0.05% v/v Tween 20), 0.05 μg bovine serum albumin, 50 μM of each deoxynucleotide triphosphate, 0.1 μg TS primer, and 3 μCi of [α-^32P]dCTP (Amersham plc, UK). Protein (40 ng or 20 ng) was then incubated with the reaction mix+agent (acid addition and quaternary dimethiodide salts) at final concentrations of up to 50 μM for 20 min at 25° C. A lysis buffer (no protein) control, heat-inactivated protein control, and 50% protein (20 ng or 10 ng) control were included in each assay; and (b) while heating at 80° C. in a PCR block of a thermal cycler (Hybaid, UK) for 5 min to inactivate telomerase activity, 0.1 μg of reverse CX primer (3′-[…]-5′ (SEQ ID NO:4)) and 2 Units of Taq DNA polymerase (“red hot”, Advanced Biotechnologies) were added. A 3-step PCR was then performed: 94° C. for 30 s, 50° C. for 30 s, and 72° C. for 1 min for 31 cycles. Telomerase-extended PCR products in the presence or absence of compounds were then determined either by electrophoretic separation using 8% w/w acrylamide denaturing gels and analysis by phosphorimaging or autoradiography, or by harvesting on Whatman filters (25 mm glass microfibre) and analysis by liquid scintillation counting.

Data set [1] in a line: Growth inhibition, sulforhodamine B (SRB) assay, SKOV-3. The class given is cell-based. As to conditions: human, SKOV-3 ovarian carcinoma cells, SKOV-3, 96 hr incubation, tested as salts, read-out: Cytotoxicity - IC50 SKOV-3. Here is the method: (§1) Growth inhibition was measured in three human ovarian carcinoma cell lines (A2780, CH1, and SKOV-3) and one human cervix carcinoma cell line (A431) using the sulforhodamine B (SRB) assay. Briefly, between 3000 and 6000 cells were seeded into the wells of 96-well microtiter plates and allowed to attach overnight. Compounds (acid addition and quaternary dimethiodide salts) were dissolved at 500 μM in water and immediately added to wells in quadruplicate at final concentrations of 0.05, 0.25, 1, 5 and 25 μM. Following an incubation period of 96 hr, remaining cells were fixed with ice-cold 10% w/v trichloroacetic acid (30 min) and stained with 0.4% SRB in 1% v/v acetic acid (15 min). Mean absorbance at 540 nm for each drug concentration was expressed as a percentage of the control untreated well absorbance, and IC50 values (concentration required to inhibit cell growth by 50%) were determined for each agent.
Background: In SRB staining, fixed cells bind dye roughly in proportion to their protein.

Data set [2] in a line: Growth inhibition, sulforhodamine B (SRB) assay, CH1. As to conditions: human, CH1 ovarian carcinoma cells, CH1, 96 hr incubation, tested as salts, read-out: Cytotoxicity - IC50 CH1. The class given is cell-based. On the procedure:
as §1

Data set [3] in a line: Growth inhibition, sulforhodamine B (SRB) assay, A2780. The note with it: human, A2780 ovarian carcinoma cells, A2780, 96 hr incubation, tested as salts, read-out: Cytotoxicity - IC50 A2780. The class given is cell-based. On the procedure: as §1

Chain of telomerase (O14746 whole entry): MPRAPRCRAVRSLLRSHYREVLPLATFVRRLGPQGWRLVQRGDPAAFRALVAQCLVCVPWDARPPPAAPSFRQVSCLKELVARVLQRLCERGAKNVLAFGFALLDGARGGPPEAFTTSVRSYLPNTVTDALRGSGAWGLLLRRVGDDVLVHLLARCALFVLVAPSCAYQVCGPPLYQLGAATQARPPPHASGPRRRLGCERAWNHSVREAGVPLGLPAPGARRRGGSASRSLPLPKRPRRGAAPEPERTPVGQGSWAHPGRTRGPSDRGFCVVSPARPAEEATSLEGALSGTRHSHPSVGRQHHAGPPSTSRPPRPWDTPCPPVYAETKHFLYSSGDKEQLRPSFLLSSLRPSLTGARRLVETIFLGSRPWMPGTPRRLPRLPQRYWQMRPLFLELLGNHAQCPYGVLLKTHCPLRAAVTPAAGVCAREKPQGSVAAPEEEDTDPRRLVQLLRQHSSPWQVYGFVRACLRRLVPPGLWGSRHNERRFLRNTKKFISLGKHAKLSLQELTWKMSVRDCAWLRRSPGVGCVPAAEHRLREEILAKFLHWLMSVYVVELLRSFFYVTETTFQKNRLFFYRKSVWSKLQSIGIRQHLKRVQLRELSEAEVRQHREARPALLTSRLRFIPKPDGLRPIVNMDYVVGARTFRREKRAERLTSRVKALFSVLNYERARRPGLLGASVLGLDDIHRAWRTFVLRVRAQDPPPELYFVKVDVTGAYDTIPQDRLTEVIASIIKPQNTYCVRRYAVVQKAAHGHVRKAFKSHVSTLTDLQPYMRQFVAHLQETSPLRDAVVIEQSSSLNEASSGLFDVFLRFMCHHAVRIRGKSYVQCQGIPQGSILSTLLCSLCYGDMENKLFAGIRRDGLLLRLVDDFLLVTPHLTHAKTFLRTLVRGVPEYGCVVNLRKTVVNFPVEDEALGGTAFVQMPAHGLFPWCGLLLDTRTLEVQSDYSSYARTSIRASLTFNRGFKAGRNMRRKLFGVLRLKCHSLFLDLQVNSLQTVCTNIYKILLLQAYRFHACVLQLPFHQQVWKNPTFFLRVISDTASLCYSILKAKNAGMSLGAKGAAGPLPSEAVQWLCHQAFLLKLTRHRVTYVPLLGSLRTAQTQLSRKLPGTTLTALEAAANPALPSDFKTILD

In the case of `O=C(CCN1CCCCC1)Nc1ccc2nc3ccc(NC(=O)CCN4CCCCC4)cc3c(O)c2c1` [BR-ACO-10, 2,7-Bis[3-(piperidino)propionamido]-9(10H)-acridone], the IC50 on telomerase came out at 5.8 µM. For the same compound, the IC50 at 96 h in data set [1], in data set [2] and in data set [3] was greater than 25 µM each time.
As for `CCN(CC)CCC(=O)Nc1ccc2c(=O)c3ccc(NC(=O)CCN(CC)CC)cc3[nH]c2c1` [BR-ACO-7, 3,6-Bis[3-(diethylamino)propionamido]-9(10H)-acridone], at telomerase, the IC50 was 5.7 µM. The IC50 at 96 h in data set [1], in data set [2] and in data set [3] was greater than 25 µM each time.
For `CC1CCCCN1CCC(=O)Nc1ccc2c(=O)c3ccc(NC(=O)CCN4CCCCC4C)cc3[nH]c2c1` (centres unmarked) [BR-ACO-36, 3,6-Bis[3-(2-methylpiperidino)propionamido]-9(10H)-acridone], the IC50 on telomerase stood at 3.3 µM. For the same compound, the IC50 at 96 h in data set [1] amounted to 12 µM; in data set [2], 11.8 µM; in data set [3], 13 µM.
Turning to `CCN1CCN(CCC(=O)Nc2ccc3c(=O)c4ccc(NC(=O)CCN5CCN(CC)CC5)cc4[nH]c3c2)CC1` [BR-ACO-39], the IC50 at telomerase is 0.74 µM. Moreover, the IC50 at 96 h in data set [1], in data set [2] and in data set [3] was greater than 25 µM in each case.
Consider `CC1CCN(CCC(=O)Nc2ccc3c(=O)c4ccc(NC(=O)CCN5CCC(C)CC5)cc4[nH]c3c2)CC1` [BR-ACO-33, 3,6-Bis[3-(4-methylpiperidino)propionamido]-9(10H)-acridone], for which, at telomerase, the IC50 came out at 1.9 µM. The IC50 at 96 h in data set [1] was 5.6 µM; in data set [2], 3 µM; in data set [3] it was 3 µM.
For the compound `O=C(CCN1CCCC1)Nc1ccc2c(=O)c3ccc(NC(=O)CCN4CCCC4)cc3[nH]c2c1` [BR-ACO-4, 3,6-Bis[3-(pyrrolidino)propionamido]-9(10H)-acridone], the IC50 on telomerase turned out to be 8 µM. For the same compound, the IC50 at 96 h in data set [1], in data set [2] and in data set [3] was greater than 25 µM in each case.
As to `O=C(CCN1CCCC1)Nc1ccc2nc3ccc(NC(=O)CCN4CCCC4)cc3c(O)c2c1` [BR-ACO-9, 2,7-Bis[3-(pyrrolidino)propionamido]-9(10H)-acridone], on telomerase, the IC50 was found to be 2.8 µM. The IC50 at 96 h in data set [1], in data set [2] and in data set [3] was greater than 25 µM in each case.
In the case of `CN(C)CCC(=O)Nc1ccc2c(=O)c3ccc(NC(=O)CCN(C)C)cc3[nH]c2c1` [BR-ACO-6, 3,6-Bis[3-(dimethylamino)propionamido]-9(10H)-acridone], the IC50 at telomerase was determined as 4.3 µM. The IC50 at 96 h in data set [1], in data set [2] and in data set [3] was greater than 25 µM each time.
Regarding `O=C(CCN1CCCCC1)Nc1ccc2c(=O)c3ccc(NC(=O)CCN4CCCCC4)cc3[nH]c2c1` [BR-ACO-5, 3,6-Bis[3-(piperidino)propionamido]-9(10H)-acridone], the IC50 on telomerase came out at 5.9 µM. The results for the IC50 at 96 h in data set [1], in data set [2] and in data set [3] were 21 µM, 13 µM and 19 µM, respectively.
Turning to `O=C(CCN1CCOCC1)Nc1ccc2c(O)c3ccc(NC(=O)CCN4CCOCC4)cc3nc2c1` [BR-ACO-8, 3,6-Bis[3-(morpholino)propionamido]-9(10H)-acridone], the IC50 on telomerase was 49 µM. In addition, the IC50 at 96 h in data set [1], in data set [2] and in data set [3] was greater than 25 µM throughout.
Consider `O=C(CCN1CCC(O)CC1)Nc1ccc2c(O)c3ccc(NC(=O)CCN4CCC(O)CC4)cc3nc2c1` [BR-ACO-34, 3,6-Bis[3-(4-hydroxypiperidino)propionamido]-9(10H)-acridone], for which the IC50 on telomerase was 1.8 µM. The IC50 at 96 h in data set [1], in data set [2] and in data set [3] was greater than 25 µM in each case.
